For experiment [1], the system named is WI-38 irradiation-induced senescent cells (IR-SC). The experiment can be described thus: Senolytic activity, cell viability (PrestoBlue HS), WI-38 IR-SC. To be noted: Homo sapiens, 72 h. The class given is cell-based. As for the experimental part:
To induce senescence in WI-38 and HUVEC, cells were subjected to x-ray irradiation at 20 Gray using X-RAD 320 biological irradiator. Following between 10 to 15 days after irradiation, senescence was induced in cells, and irradiation-induced senescent cells (IR-SC) were then used for cell viability and Western blotting tests.
(§1) WI-38 and HUVEC cells were incubated with increasing concentrations of degraders for 72 h. Cell viability was measured using PrestoBlue HS cell viability reagent.

Another experiment deals with WI-38 NC. The experiment can be described thus: Senolytic activity, cell viability (PrestoBlue HS), WI-38 NC. It counts as cell-based. Particulars: Homo sapiens, 72 h. The procedure: as §1
The test system of experiment [2] is RS4;11 acute lymphoblastic leukemia cells. The experiment can be described thus: Cell viability, tetrazolium-based MTS assay, RS4;11. To be noted: Homo sapiens, RS4;11, 48 h, read-out: Anti-Cancer Activity EC50 (48 hr), RS4. As for the experimental part:
(§2) Acute lymphoblastic leukemia cells (MOLT-4 and RS4;11) were incubated with increasing concentrations of Bcl-xL/Bcl-2 degraders for 48 h. Cell viability was measured by tetrazolium-based MTS assay.

The subject of experiment [3] is MOLT-4 acute lymphoblastic leukemia cells. Description: Cell viability, tetrazolium-based MTS assay, MOLT-4. To be noted: Homo sapiens, MOLT-4, 48 h; read-out: Anti-Cancer Activity EC50 (48 hr), MOLT-4. The procedure: as §2

Among the data in patent US20260355323A1, “CEREBLON-RECRUITING BCL-XL/BCL-2 DUAL DEGRADERS” (University of Florida Research Foundation, Incorporated, priority 2022, published 2026) are EC50 values, retold here.

Molecules are shown by their SMILES. Where only a bound is given, the exact number is not on record here.

In the case of `C[C@@]1(CN2CCN(C(=O)CN3CCN(CCCc4ccc5c(c4)CN(C4CCC(=O)NC4=O)C5=O)CC3)CC2)CCC(c2ccc(Cl)cc2)=C(CN2CCN(c3ccc(C(=O)NS(=O)(=O)c4ccc(N[C@H](CCN5CCCOCC5)CSc5ccccc5)c(S(=O)(=O)C(F)(F)F)c4)cc3)CC2)C1` (stereo partly drawn) [Compound 6, N-((4-(((R)-4-(1,4-oxazepan-4-yl)-1-(phenylthio)butan-2-yl)amino)-3-((trifluoromethyl)sulfonyl)phenyl)sulfonyl)-4-(4-(((4R)-4′-chloro-4-((4-(2-(4-(3-(2-(2,6-dioxopiperidin-3-yl)-1-oxoisoindolin-5-yl)propyl)piperazin-1-yl)acetyl)piperazin-1-yl)methyl)-4-methyl-3,4,5,6-tetrahydro-[1,1′-biphenyl]-2-yl)methyl)piperazin-1-yl)benzamide], the EC50 in experiment [1] is 1 to 10 nM; with WI-38 NC, more than 10000 nM; in experiment [2], less than 1 nM; in experiment [3], less than 1 nM.
In the case of `C[C@@]1(CN2CCN(C(=O)CN3CCC(CCc4ccc5c(c4)CN(C4CCC(=O)NC4=O)C5=O)CC3)CC2)CCC(c2ccc(Cl)cc2)=C(CN2CCN(c3ccc(C(=O)NS(=O)(=O)c4ccc(N[C@H](CCN5CCCOCC5)CSc5ccccc5)c(S(=O)(=O)C(F)(F)F)c4)cc3)CC2)C1` (stereo partly drawn) [Compound 7, N-((4-(((R)-4-(1,4-oxazepan-4-yl)-1-(phenylthio)butan-2-yl)amino)-3-((trifluoromethyl)sulfonyl)phenyl)sulfonyl)-4-(4-(((4R)-4′-chloro-4-((4-(2-(4-(2-(2-(2,6-dioxopiperidin-3-yl)-1-oxoisoindolin-5-yl)ethyl)piperidin-1-yl)acetyl)piperazin-1-yl)methyl)-4-methyl-3,4,5,6-tetrahydro-[1,1′-biphenyl]-2-yl)methyl)piperazin-1-yl)benzamide], the EC50 is 1 to 10 nM in experiment [1], more than 10000 nM in the experiment on WI-38 NC, less than 1 nM in experiment [2] and less than 1 nM in experiment [3].
As to `C[C@@]1(CN2CCN(C(=O)CN3CCC(CN4CCN(c5ccc6c(c5)CN(C5CCC(=O)NC5=O)C6=O)CC4)CC3)CC2)CCC(c2ccc(Cl)cc2)=C(CN2CCN(c3ccc(C(=O)NS(=O)(=O)c4ccc(N[C@H](CCN5CCCOCC5)CSc5ccccc5)c(S(=O)(=O)C(F)(F)F)c4)cc3)CC2)C1` (stereo partly drawn) [Compound 8, N-((4-(((R)-4-(1,4-oxazepan-4-yl)-1-(phenylthio)butan-2-yl)amino)-3-((trifluoromethyl)sulfonyl)phenyl)sulfonyl)-4-(4-(((4R)-4′-chloro-4-((4-(2-(4-((4-(2-(2,6-dioxopiperidin-3-yl)-1-oxoisoindolin-5-yl)piperazin-1-yl)methyl)piperidin-1-yl)acetyl)piperazin-1-yl)methyl)-4-methyl-3,4,5,6-tetrahydro-[1,1′-biphenyl]-2-yl)methyl)piperazin-1-yl)benzamide], the EC50 is 1 to 10 nM in experiment [1], more than 10000 nM in the experiment with WI-38 NC, less than 1 nM in experiment [2] and less than 1 nM in experiment [3].
For the compound `C[C@@]1(CN2CCN(C(=O)CCCN3CCC(CN4CCN(c5ccc6c(c5)CN(C5CCC(=O)NC5=O)C6=O)CC4)CC3)CC2)CCC(c2ccc(Cl)cc2)=C(CN2CCN(c3ccc(C(=O)NS(=O)(=O)c4ccc(N[C@H](CCN5CCCOCC5)CSc5ccccc5)c(S(=O)(=O)C(F)(F)F)c4)cc3)CC2)C1` (stereo partly drawn) [Compound 9, N-((4-(((R)-4-(1,4-oxazepan-4-yl)-1-(phenylthio)butan-2-yl)amino)-3-((trifluoromethyl)sulfonyl)phenyl)sulfonyl)-4-(4-(((4R)-4′-chloro-4-((4-(4-(4-((4-(2-(2,6-dioxopiperidin-3-yl)-1-oxoisoindolin-5-yl)piperazin-1-yl)methyl)piperidin-1-yl)butanoyl)piperazin-1-yl)methyl)-4-methyl-3,4,5,6-tetrahydro-[1,1′-biphenyl]-2-yl)methyl)piperazin-1-yl)benzamide], the EC50 in experiment [1] was 10 to 100 nM; in the experiment with WI-38 NC, more than 10000 nM; in experiment [2], less than 1 nM; in experiment [3] it was less than 1 nM.
Turning to `C[C@@]1(CN2CCN(C(=O)CN3CCC(CCN4CCN(c5ccc6c(c5)CN(C5CCC(=O)NC5=O)C6=O)CC4)CC3)CC2)CCC(c2ccc(Cl)cc2)=C(CN2CCN(c3ccc(C(=O)NS(=O)(=O)c4ccc(N[C@H](CCN5CCCOCC5)CSc5ccccc5)c(S(=O)(=O)C(F)(F)F)c4)cc3)CC2)C1` (stereo partly drawn) [Compound 10, N-((4-(((R)-4-(1,4-oxazepan-4-yl)-1-(phenylthio)butan-2-yl)amino)-3-((trifluoromethyl)sulfonyl)phenyl)sulfonyl)-4-(4-(((4R)-4′-chloro-4-((4-(2-(4-(2-(4-(2-(2,6-dioxopiperidin-3-yl)-1-oxoisoindolin-5-yl)piperazin-1-yl)ethyl)piperidin-1-yl)acetyl)piperazin-1-yl)methyl)-4-methyl-3,4,5,6-tetrahydro-[1,1′-biphenyl]-2-yl)methyl)piperazin-1-yl)benzamide], the EC50 in experiment [1] was 10 to 100 nM; in the experiment with WI-38 NC it was more than 10000 nM; in experiment [2] it was less than 1 nM; in experiment [3] it was less than 1 nM.
For the compound `C[C@@]1(CN2CCC(CN3CCN(CC#Cc4ccc5c(c4)CN(C4CCC(=O)NC4=O)C5=O)CC3)CC2)CCC(c2ccc(Cl)cc2)=C(CN2CCN(c3ccc(C(=O)NS(=O)(=O)c4ccc(N[C@H](CCN5CCCOCC5)CSc5ccccc5)c(S(=O)(=O)C(F)(F)F)c4)cc3)CC2)C1` (stereo partly drawn) [Compound 13, N-((4-(((R)-4-(1,4-oxazepan-4-yl)-1-(phenylthio)butan-2-yl)amino)-3-((trifluoromethyl)sulfonyl)phenyl)sulfonyl)-4-(4-(((4R)-4′-chloro-4-((4-((4-(3-(2-(2,6-12 dioxopiperidin-3-yl)-1-oxoisoindolin-5-yl)prop-2-yn-1-yl)piperazin-1-yl)methyl)piperidin-1-yl)methyl)-4-methyl-3,4,5,6-tetrahydro-[1,1′-biphenyl]-2-yl)methyl)piperazin-1-14 yl)benzamide], the half-maximal effective concentration (EC50) in experiment [1] was 1 to 10 nM; with WI-38 NC it was more than 10000 nM; in experiment [2], less than 1 nM; in experiment [3] it was less than 1 nM.
Regarding `CC1(CN2CCN(C(=O)CN3CCN(C(=O)CCCCNc4cccc5c4C(=O)N(C4CCC(=O)NC4=O)C5=O)CC3)CC2)CCC(c2ccc(Cl)cc2)=C(CN2CCN(c3ccc(C(=O)NS(=O)(=O)c4ccc(N[C@H](CCN5CCOCC5)CSc5ccccc5)c(S(=O)(=O)C(F)(F)F)c4)cc3)CC2)C1` (stereo partly drawn) [Compound 14, 4-(4-((4′-chloro-4-((4-(2-(4-(5-((2-(2,6-dioxopiperidin-3-yl)-1,3-dioxoisoindolin-4-yl)amino)pentanoyl)piperazin-1-yl)acetyl)piperazin-1-yl)methyl)-4-methyl-3,4,5,6-tetrahydro-[1,1′-biphenyl]-2-yl)methyl)piperazin-1-yl)-N-((4-(((R)-4-morpholino-1-(phenylthio)butan-2-yl)amino)-3-((trifluoromethyl)sulfonyl)phenyl)sulfonyl)benzamide], the 50% effective concentration (EC50) in experiment [1] is 10000 to 100000 nM; in the experiment with WI-38 NC, more than 10000 nM; in experiment [2], less than 1 nM; in experiment [3], less than 1 nM.
